Source: US20060069163A1, “Method for treating Alzheimer's disease” (Pfizer Inc, priority 2000, published 2006)
“Also recorded” adds a separate entry of the source.

What follows are compounds tested on β-amyloid peptide (Aβ) synthesized by β APP-CHO cells (assay: Aβ production in βAPP-CHO cells, sandwich ELISA). Conditions: CHO cells overexpressing human βAPP; test compounds added at various dose concentrations to the medium; FIG. 5 and FIG. 6.
Format: cell-based, Chinese hamster
Description: This experiment was designed to determine the ability of lipid regulating agents to alter the production of β-amyloid peptide (Aβ) in cultured cells, and their consequent activity in preventing and treating Alzheimer's Disease.
Chinese hamster ovary (CHO) cells were stably transfected with a construct to enable the overexpression of the human β-amyloid precursor protein (βAPP) gene to cause increased production of Aβ. The measurement of Aβ synthesized by these β APP-CHO cells was done using a standard sandwich ELISA assay, employing well-characterized antibodies to the N-terminus (6E10) and middle (4G8) of Aβ. This assay is routinely used to measure Aβ in tissues, body fluids, and cell culture media. Cultures of β APP-CHO cells were grown to near confluency, and then the test compounds were added at various dose concentrations to the cell medium.
`CC[C@H](C)C(=O)O[C@H]1C[C@@H](C)C=C2C=C[C@H](C)[C@H](CC[C@@H]3C[C@@H](O)CC(=O)O3)[C@H]21` [lovastatin] was tested, and the “reduction in Aβ” value was “dose-dependent inhibition; also recorded: dramatic dose-dependent reduction”. For `c1coc(CSC2=NCCS2)c1` [PD 69405], the “reduction in Aβ” value was “only moderate changes”. `CC(C)c1cc(C(C)C)c(CC(=O)NS(=O)(=O)Oc2c(C(C)C)cccc2C(C)C)c(C(C)C)c1` [Avasimibe] was tested, and the “reduction in Aβ” value was “substantial dose-dependent reduction”. With `Cc1ccc(C)c(OCCCC(C)(C)C(=O)O)c1` [CI-719, gemfibrozil] the “reduction in Aβ” value was “only moderate changes”. `CC(C)(CCCCOCCCCC(C)(C)C(=O)O)C(=O)O` [CI-1027] was tested, and the “reduction in Aβ” value was “only moderate changes”. With `CC[C@H](C)C(=O)O[C@H]1CCC=C2C=C[C@H](C)[C@H](CC[C@@H]3C[C@@H](O)CC(=O)O3)[C@H]21` [mevastatin] the “reduction in Aβ” value was “dose-dependent inhibition”.

Same assay, conditions: CHO cells overexpressing human βAPP; test compounds added at various dose concentrations to the medium; FIG. 5 and FIG. 6; listed as Mevastatin
With `CC[C@H](C)C(=O)O[C@H]1CCC=C2C=C[C@H](C)[C@H](CC[C@@H]3C[C@@H](O)CC(=O)O3)[C@H]21` [mevastatin] the “reduction in Aβ” value was “dramatic dose-dependent reduction”.
